Source: PubChem BioAssay AID2060610 (Molecular Pharmacology Branch, DTP, NCI, 2025)
pIC50: −log10 of the molar value.

Tested on: 616215-338-R-J1-PDC complex spheroids, viability % test/control
Test: Anticancer human tumor 616215-338-R-J1-PDC patient-derived colon adenocarcinoma cell line growth inhibition [CLK]
Conditions: for pIC50: curve of first compound; for viability, T/C: stronger effect = lower value
Excerpt: A high-throughput screen of multi-cell type tumor spheroids was designed to identify active combinations of […] and targeted small molecules. Complex spheroids include a stromal component modeled by human endothelial cells (HUVEC) and fibroblasts modeled by human mesenchymal stem cells (MSCs). The concentration ranges selected for each drug and investigational agent were based upon clinically achievable concentrations if the clinical Cmax of the agent was known.
Compounds. The drugs and investigational agents: cirtuvivint (SM08502; NSC835563), CC-671 (NSC850746), vemurafenib (NSC761431), tapotoclax (NSC804041), sotorasib (NSC818433), adagrasib (NSC831453), MRTX-1133 (NSC836407), BAY2416964 (NSC825713), copanlisib (NSC816437), inavolisib (NSC800729), abemaciclib (NSC768073), osimertinib (NSC779217), entinostat (NSC756642), eltanexor (KPT-8602, NSC794443), venetoclax (NSC766270), ceralasertib (NSC777638), bortezomib (NSC756655), olaparib (NSC753686), talazoparib (NSC767125), alisertib (NSC759677), peposertib (NSC802822), gemcitabine (NSC613327), 5-fluorouracil (NSC19893), SN-38 (NSC673596), oxaliplatin (NSC266046), paclitaxel (NSC125973), and doxorubicin (NSC123127), were obtained from the National Cancer Institute (NCI) Developmental Therapeutics Program Chemical Repository. The FDA-approved anticancer drug set is available from the Developmental Therapeutics Program at https://dtp.cancer.gov/organization/dscb/obtaining/available plates.htm. […] The stock solutions were prepared in dimethyl sulfoxide (DMSO, Sigma-Aldrich, St. Louis, MO, cat. D2650), except for the platinum complexes which were prepared in saline (Quality Biological, Gaithersburg, MD, cat. 114-055-101), at 800-fold the tested concentration and stored at -70 degrees C prior to their use. All drugs and investigational agents were tested over a range starting from a high concentration at or near the clinical Cmax and decreasing in half-log increments. If the clinical Cmax for an agent had not been determined, the highest concentration tested was 10 microM.
Cell Culture. All cells were maintained in an incubator at 37 degrees C and 5% CO2 with 95% humidity. The PDC lines were cultured according to standard operating procedures established by the NCI PDMR. Briefly, all PDCs were thawed and cultured in Matrigel-coated flasks prepared with a working solution of 1X Ham's F-12 nutrient mix, without supplementation (Invitrogen, Waltham, MA, cat. 11765054), 100 U/mL penicillin-streptomycin (Invitrogen, cat. 15140122), and 2.5% Matrigel (Corning Inc., Corning, NY, cat. 354248) for the first three passages. The 947758-054-R-J2-PDC line was cultured in 6B/Colon 1A media, which includes advanced DMEM/F-12 (Thermo Fisher Scientific, cat. 12634028), 10 mM HEPES (Thermo Fisher Scientific, cat. 15630080), 1X GlutaMAX supplement (Thermo Fisher Scientific, cat. 35050061), 0.1 mg/mL primocin (InvivoGen, cat. ant-pm-2), 10% defined fetal bovine serum, heat inactivated (HyClone Laboratories Inc., cat. SH30070.03HI), 1.25 mM N-Acetyl-L-cysteine (Sigma-Aldrich, cat. A9165), 10 mM nicotinamide (Sigma-Aldrich, cat. N0636), 1X B-27 supplement (Thermo Fisher Scientific, cat. 17504044), 1X N-2 supplement (Thermo Fisher Scientific, cat. 17502048), and 10 microM Y-27632 dihydrochloride (Tocris Bioscience, cat. 1254). The 876862-298-R-J1-PDC was cultured in 6E media, which includes all 6B/Colon 1A media components plus 50% L-WRN conditioned media (ATCC, cat. CRL-3276), 50 ng/mL recombinant human EGF recombinant protein (hEGF; Thermo Fisher Scientific, cat. PHG0311), 10 ng/mL recombinant human fibroblast growth factor 10 (hGFG-10; PeproTech, cat. 100-26), 1 ng/mL recombinant human fibroblast growth factor 2 (hFGF-2; PeproTech, cat. 100-18B), and 1 µM prostaglandin E2 (PGE2; Tocris, cat. 2296). The 227483-062-R1-J1-PDC line was cultured in Panc media, containing all 6E components except hFGF-2, with the addition of 500 nM SB-431542 (Selleckchem, cat. S1067) and 10 nM gastrin (Tocris, cat. 3006). […]

[1] = second compound 0.0316 µM, first compound 0.0316 µM
[2] = second compound 0.0316 µM, first compound 0.1 µM
[3] = second compound 0.0316 µM, first compound 0.316 µM
[4] = second compound 0.0316 µM, first compound 1 µM
[5] = second compound 0.0316 µM, first compound 3.16 µM
[6] = second compound 0.0316 µM, first compound 10 µM
[7] = second compound 0.1 µM, first compound 0.0316 µM
[8] = second compound 0.1 µM, first compound 0.1 µM
[9] = second compound 0.1 µM, first compound 0.316 µM
[10] = second compound 0.1 µM, first compound 1 µM
[11] = second compound 0.1 µM, first compound 3.16 µM
[12] = second compound 0.1 µM, first compound 10 µM
[13] = second compound 0.316 µM, first compound 0.0316 µM
[14] = second compound 0.316 µM, first compound 0.1 µM
[15] = second compound 0.316 µM, first compound 0.316 µM
[16] = second compound 0.316 µM, first compound 1 µM
[17] = second compound 0.316 µM, first compound 3.16 µM
[18] = second compound 0.316 µM, first compound 10 µM
[19] = second compound 1 µM, first compound 0.0316 µM
[20] = second compound 1 µM, first compound 0.1 µM
[21] = second compound 1 µM, first compound 0.316 µM
[22] = second compound 1 µM, first compound 1 µM
[23] = second compound 1 µM, first compound 3.16 µM
[24] = second compound 1 µM, first compound 10 µM
[25] = second compound 3.16 µM, first compound 0.0316 µM
[26] = second compound 3.16 µM, first compound 0.1 µM
[27] = second compound 3.16 µM, first compound 0.316 µM
[28] = second compound 3.16 µM, first compound 1 µM
[29] = second compound 3.16 µM, first compound 3.16 µM
[30] = second compound 3.16 µM, first compound 10 µM
[31] = second compound 10 µM, first compound 0.0316 µM
[32] = second compound 10 µM, first compound 0.1 µM
[33] = second compound 10 µM, first compound 0.316 µM
[34] = second compound 10 µM, first compound 1 µM
[35] = second compound 10 µM, first compound 3.16 µM
[36] = second compound 10 µM, first compound 10 µM
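Also: spheroids exposed to agents for 7 days.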
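For viability, T/C in this document: 100% = DMSO vehicle wells.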

C=C(F)C(=O)N1CCN(c2nc(OCC3CCCN3C)nc3c2CCN(c2cccc4cccc(Cl)c24)C3)CC1CC#N (centres undefined) + CN1CCN(c2cc(C(=O)Nc3cc4cc(-c5cnn(C)c5)ccc4cn3)ccn2)CC1
pIC50 (second compound 0.0316 µM): 5.23 | pIC50 (second compound 0.1 µM): 5.22 | pIC50 (second compound 0.316 µM): > 7.50 | pIC50 (second compound 1 µM): > 7.50 | pIC50 (second compound 3.16 µM): > 7.50 | pIC50 (second compound 10 µM): > 7.50 | viability, T/C [1]: 102% | viability, T/C [2]: 109% | viability, T/C [3]: 105% | viability, T/C [4]: 106% | viability, T/C [5]: 116% | viability, T/C [6]: 0.26% | viability, T/C [7]: 114% | viability, T/C [8]: 120% | viability, T/C [9]: 107% | viability, T/C [10]: 116% | viability, T/C [11]: 119% | viability, T/C [12]: 0.19% | viability, T/C [13]: 35.1% | viability, T/C [14]: 45.4% | viability, T/C [15]: 40.2% | viability, T/C [16]: 38.8% | viability, T/C [17]: 11.3% | viability, T/C [18]: 0.12% | viability, T/C [19]: 0.28% | viability, T/C [20]: 0.24% | viability, T/C [21]: 0.31% | viability, T/C [22]: 0.16% | viability, T/C [23]: 0.14% | viability, T/C [24]: 0.11% | viability, T/C [25]: 0.16% | viability, T/C [26]: 0.16% | viability, T/C [27]: 0.16% | viability, T/C [28]: 0.18% | viability, T/C [29]: 2.55% | viability, T/C [30]: 3.36% | viability, T/C [31]: 0.24% | viability, T/C [32]: 0.21% | viability, T/C [33]: 0.22% | viability, T/C [34]: 0.25% | viability, T/C [35]: 1.31% | viability, T/C [36]: 0.21%

C=CC(=O)N1CCN(c2nc(=O)n(-c3c(C)ccnc3C(C)C)c3nc(-c4c(O)cccc4F)c(F)cc23)C(C)C1 (centres undefined) + CN1CCN(c2cc(C(=O)Nc3cc4cc(-c5cnn(C)c5)ccc4cn3)ccn2)CC1
pIC50 (second compound 0.0316 µM): < 5.00 | pIC50 (second compound 0.1 µM): < 5.00 | pIC50 (second compound 0.316 µM): > 7.50 | pIC50 (second compound 1 µM): > 7.50 | pIC50 (second compound 3.16 µM): > 7.50 | pIC50 (second compound 10 µM): > 7.50 | viability, T/C [1]: 104% | viability, T/C [2]: 116% | viability, T/C [3]: 107% | viability, T/C [4]: 104% | viability, T/C [5]: 111% | viability, T/C [6]: 102% | viability, T/C [7]: 116% | viability, T/C [8]: 113% | viability, T/C [9]: 107% | viability, T/C [10]: 114% | viability, T/C [11]: 115% | viability, T/C [12]: 110% | viability, T/C [13]: 34.9% | viability, T/C [14]: 43% | viability, T/C [15]: 43.7% | viability, T/C [16]: 50.9% | viability, T/C [17]: 49.9% | viability, T/C [18]: 28.1% | viability, T/C [19]: 0.2% | viability, T/C [20]: 0.5% | viability, T/C [21]: 0.21% | viability, T/C [22]: 0.2% | viability, T/C [23]: 0.15% | viability, T/C [24]: 0.24% | viability, T/C [25]: 0.13% | viability, T/C [26]: 1.31% | viability, T/C [27]: 0.14% | viability, T/C [28]: 0.14% | viability, T/C [29]: 0.13% | viability, T/C [30]: 1.21% | viability, T/C [31]: 0.17% | viability, T/C [32]: 0.19% | viability, T/C [33]: 0.51% | viability, T/C [34]: 0.2% | viability, T/C [35]: 0.2% | viability, T/C [36]: 0.17%
